For this assay, the system named is Formalin induced pain in rat animal models of hyperalgesia. The experiment in a line: Rat Formalin Paw Test (in vivo assay). To be noted: flinches, shown in FIGS. 1 and 2. Here is the method: Rat Formalin Paw Test (in Vivo Assay): Compounds were assessed for their ability to inhibit the behavioral response evoked by an injection of formalin (50 μl of 5% formalin). A metal band was affixed to the left hind paw of male Holtzman rats (225-250 g, Harlan Industries, Indianapolis Ind.) and each rat was conditioned to the band for 60 min within a plastic cylinder (15 cm diameter). Rats were dosed with either vehicle, positive control compound or a test compound either before (local) or after (systemic) formalin challenge. For local administration, compounds were prepared in either a 10:7.5 vehicle of saline (in mL) and (D)- or (L)-Tartaric acid (in mg), or a 1:1:6 vehicle of DMA (N,N-Dimethylacetamide), Tween 80 and saline, and injected […] into the dorsal surface of the right hind paw of the rat 60 min prior to formalin. The number of flinches was counted continuously for 60 min using an automated nociception analyzer (UCSD Anesthesiology Research, San Diego, Calif.). Statistical significance was determined by comparing the total flinches detected in the early (0-10 min, Phase I) and late (11-60 min) phase with an unpaired t-test. […]

This is an account of results in patent US8586619B2, “Agents of calcium ion channel modulators” (VM Therapeutics LLC, priority 2007, dated 2013).

For the compound `CC1CCCC(NC(=O)C2N(C(C)CCc3ccccc3)C(=O)C3C(C(=O)Nc4cc(Cl)cc(Cl)c4)C4C=CC32O4)C1C` (centres unmarked) [Compound 52, 3-(1-Methyl-3-phenyl-propyl)-4-oxo-10-oxa-3-aza-tricyclo[5.2.1.0^1,5]dec-8-ene-2,6-dicarboxylic acid 2-[(3,5-dichloro-phenyl)-amide]6-[(2,3-dimethyl-cyclohexyl)-amide]], the “reduction of Formalin induced pain” value is listed as “reduction of Formalin induced pain”. Take `O=C(c1ccc(F)cc1)C1CCN(CCn2c(=O)[nH]c3ccccc3c2=O)CC1` [Compound 401, 3-{2-[4-(4-Fluoro-benzoyl)-piperidin-1-yl]-ethyl}-1H-quinazoline-2,4-dione]: the “reduction of Formalin induced pain” value is “reduction of Formalin induced pain”.
